Reference: PubChem BioAssay (NCI)
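Where inhibition never reached the appropriate level, the endpoint shown equals the highest concentration tested. Otherwise, values were interpolated linearly from a five-concentration, 48-hour dose response in 96-well plates. TGI marks complete inhibition of growth.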

How the values were obtained:
Assay in all cases: DTP human tumour cell line panel, 48 h
HCC-2998 colon = test system: HCC-2998 colon
SR leukemia = test system: SR leukemia
786-0 renal = test system: 786-0 renal
OVCAR-8 ovarian = test system: OVCAR-8 ovarian
HOP-62 NSCLC = test system: HOP-62 NSCLC
UO-31 renal = test system: UO-31 renal
HT29 colon = test system: HT29 colon
NCI-H522 lung = test system: NCI-H522 lung
A549 NSCLC = test system: A549 NSCLC
SK-MEL-5 melanoma = test system: SK-MEL-5 melanoma
HOP-92 NSCLC = test system: HOP-92 NSCLC
MCF7 breast = test system: MCF7 breast
EKVX NSCLC = test system: EKVX NSCLC
SF-268 CNS = test system: SF-268 CNS
T-47D breast = test system: T-47D breast
HCT-15 colon = test system: HCT-15 colon
NCI-H23 lung = test system: NCI-H23 lung
HS 578T breast = test system: HS 578T breast
KM12 colon = test system: KM12 colon

| SMILES | TGI (HCC-2998 colon) [µM] | TGI (SR leukemia) [µM] | TGI (786-0 renal) [µM] | TGI (OVCAR-8 ovarian) [µM] | TGI (HOP-62 NSCLC) [µM] | TGI (UO-31 renal) [µM] | TGI (HT29 colon) [µM] | TGI (NCI-H522 lung) [µM] | TGI (A549 NSCLC) [µM] | TGI (SK-MEL-5 melanoma) [µM] | TGI (HOP-92 NSCLC) [µM] | TGI (MCF7 breast) [µM] | TGI (EKVX NSCLC) [µM] | TGI (SF-268 CNS) [µM] | TGI (T-47D breast) [µM] | TGI (HCT-15 colon) [µM] | TGI (NCI-H23 lung) [µM] | TGI (HS 578T breast) [µM] | TGI (KM12 colon) [µM] |
| --- | --- | --- | --- | --- | --- | --- | --- | --- | --- | --- | --- | --- | --- | --- | --- | --- | --- | --- | --- |
| C/C(=N/NC(=S)N1CCCCCC1)c1ccccc1O | > 42.1 | 4.57 | 39.3 | > 100 | 56.7 | > 88.3 | 39.7 | > 53.2 | > 100 | > 37.7 | > 100 | > 100 | > 100 | > 24.5 | > 33.6 | > 100 | > 100 | > 100 | > 53.7 |
| CCOC(=O)c1c(N2CCOCC2)[nH]c(=O)c(C(c2c(O)c(C(=O)OCC)c(N3CCOCC3)[nH]c2=O)C(C)C)c1O | > 100 | > 100 | > 100 | > 100 | > 100 | > 100 | > 100 | > 100 | > 100 | > 100 | > 100 | > 100 | > 100 | > 100 | > 100 | > 100 | > 100 | > 100 | > 100 |
| O=c1oc2ccccc2c(-c2ccc(O)cc2)c1Oc1ccc(Cl)cc1 | 46.1 | 51.9 | 73 | 69.7 | – | 51.9 | 64.1 | 43.7 | 47.3 | 45.3 | 52.9 | 72.3 | 68.7 | 75.9 | > 100 | > 100 | 68.6 | > 100 | > 100 |
| Nc1nc(N)nc(-c2cnc3ccccc3c2)n1 | > 100 | > 100 | > 100 | > 100 | > 100 | > 100 | – | > 100 | > 100 | – | > 100 | > 100 | > 100 | > 100 | > 100 | > 100 | > 100 | > 100 | > 100 |
| NNC(=O)CC(=O)Nc1ccc(C(=O)O)cc1 | – | > 100 | > 100 | > 100 | > 100 | > 100 | > 100 | > 100 | > 100 | > 100 | > 100 | > 100 | > 100 | > 100 | > 100 | > 100 | > 100 | > 100 | > 100 |
| CC(=O)OCC1OC(O[C@@H]2C[C@H]3C(C)(C)[C@H](OC(C)=O)CC[C@]3(C)[C@H]3CC[C@@]45C[C@H](O)C[C@H](C)[C@@H]4CC=C5[C@@]32C)C(O)C(O)C1O (stereo partly drawn) | 3.72 | 4.27 | 12.8 | 17.4 | 23.8 | 26.3 | 3.7 | 9.28 | 16.9 | 8.65 | 15 | 11 | 22 | 15.6 | 13.7 | 25.5 | 18.3 | 18.2 | 7.59 |
| O=[N+]([O-])c1nccn1CCCN=c1c2ccccc2n(O)c2ccccc12 | – | > 100 | > 100 | > 100 | > 100 | > 100 | > 100 | > 100 | > 100 | > 100 | > 100 | > 100 | > 100 | > 100 | > 100 | > 100 | > 100 | > 100 | > 100 |
| CCOC(=O)c1ccc(-c2cccs2)n1C | > 100 | > 100 | > 100 | > 100 | > 100 | > 100 | > 100 | > 100 | > 100 | > 100 | > 94.8 | > 100 | > 100 | > 100 | > 92.4 | > 100 | > 100 | > 100 | > 100 |
| COC(OC)C1(c2ccccc2)Oc2ccccc2C1=O (stereo not drawn) | > 100 | > 100 | > 100 | > 100 | > 100 | – | > 100 | > 100 | > 100 | > 100 | > 100 | > 100 | > 100 | > 100 | > 100 | > 100 | > 100 | > 100 | > 100 |
| NC(=O)ON=C1CCN(Cc2ccccc2)CC1 | > 100 | > 100 | > 100 | > 100 | > 100 | > 100 | > 100 | > 100 | > 100 | > 100 | > 100 | > 100 | > 100 | > 100 | > 100 | > 100 | > 100 | > 100 | > 100 |
| Nc1ccc(S(=O)(=O)Nc2nc3ccccc3nc2Nc2ccc(S(N)(=O)=O)cc2)cc1 | – | > 100 | > 100 | > 100 | > 100 | 56.2 | > 100 | 96.6 | > 100 | > 100 | > 100 | > 100 | > 100 | 60.7 | > 100 | > 100 | 48 | > 100 | > 100 |
| O=C(O)c1cnccc1-c1cc(=O)[nH]n1-c1ccccc1 | > 63.2 | > 100 | > 100 | > 100 | > 100 | > 100 | > 67.1 | > 100 | > 100 | > 100 | > 100 | > 100 | > 100 | > 100 | > 100 | > 100 | > 100 | > 100 | > 100 |
| C/C=C1/CN2CCC34C5=CC(=O)C(c6cc7c(cc6OC)N(C)C6=C(C(=O)OC)CC8(CC)CCCN9CCC67C98)=CC5=NC23CCC1C4C(=O)OC (stereo not drawn) | 29.5 | 6.63 | 24.9 | 30.2 | 31.5 | 24.6 | 28 | 23.7 | 30.3 | 28.5 | 20.8 | 22.8 | 28.1 | 33.1 | 29 | 28.3 | 28.2 | 25.6 | 30.3 |
| CSc1c(C#N)c(O)n(-c2ccc(Cl)cc2)c(=O)c1C#N | > 100 | > 100 | > 100 | > 100 | – | > 100 | > 100 | > 100 | > 100 | > 100 | 98 | > 100 | > 100 | > 100 | > 100 | > 100 | > 100 | > 100 | > 100 |
| C#CCn1c(=O)c(C)cn(/C(=C/C(=O)OCC)C(=O)OCC)c1=O | 32.2 | > 100 | 19.4 | 5.56 | 30.5 | 23.4 | 4.88 | – | 32.4 | 32.9 | 8.5 | 13.7 | 21.1 | 25.6 | 20.3 | 4.07 | 23.4 | 30 | 32 |
| Fc1ccc(C2(CCCN3CCc4[nH]c5cc(F)ccc5c4C3)OCCO2)cc1 | 4.21 | 22 | 27.1 | 33.9 | 25.7 | 10.8 | 15 | – | 29 | 23.5 | 10.2 | 25.3 | 29.1 | 30.9 | 30.4 | 31 | 31.7 | 17.4 | 29.8 |
| COc1ccc2cc(-c3ccc(OC)c(OC)c3)c(=O)oc2c1 | > 100 | > 100 | > 100 | > 100 | > 100 | > 100 | > 100 | > 100 | > 100 | > 100 | > 100 | > 100 | > 100 | > 100 | > 100 | > 100 | > 100 | > 100 | > 100 |
| CNC(=S)NNC1=NCCCN1 | > 100 | > 100 | > 100 | > 100 | > 100 | > 100 | > 100 | > 100 | > 100 | > 100 | > 100 | > 100 | > 100 | > 100 | > 100 | > 100 | > 100 | > 100 | > 100 |
| NC(=S)SC1=NNC2(C(=O)N1)c1ccccc1-c1ccccc12 | > 10 | > 10 | > 10 | > 10 | > 10 | > 10 | > 10 | > 10 | > 10 | > 10 | > 10 | > 10 | > 10 | > 10 | > 10 | > 10 | > 10 | > 10 | > 10 |
| CCOC(=O)CCC(NC(=O)N1CCN(c2c(C)nc(C)[nH]c2=O)CC1)C(=O)OCC (stereo not drawn) | > 100 | > 100 | > 100 | > 100 | > 100 | > 100 | > 100 | > 100 | > 100 | – | > 100 | > 100 | > 100 | > 100 | > 100 | > 100 | > 100 | > 100 | > 100 |
| C[C@]1(O)CC(=O)c2c(c(-c3ccc4cc5c(c(O)c4c3O)C(=O)C[C@@](C)(O)C5)c3cccc(O)c3c2O)C1 | 16.4 | > 100 | 17.1 | 18.5 | 10.9 | 14.8 | 20 | 13.5 | 23.8 | 14 | 8.72 | > 100 | 24.7 | 17.9 | 14.4 | 11.4 | 12.9 | 88 | 11.7 |
| C/C(=C/CNc1ncnc2c1ncn2CCC(=O)O)CO | > 100 | > 100 | > 100 | > 100 | > 100 | > 100 | > 100 | > 100 | > 100 | > 100 | > 100 | > 100 | > 100 | > 100 | > 100 | – | > 100 | > 100 | > 100 |
| Brc1ccc(-c2ccc(-c3ccc(-c4ccc(Br)s4)s3)s2)s1 | > 100 | > 100 | > 100 | > 100 | > 100 | > 100 | > 100 | – | > 100 | > 100 | > 100 | > 100 | > 100 | > 100 | > 100 | > 100 | > 100 | > 100 | > 100 |
| CCN(CC)CCC(=O)c1ccc(Oc2ccc(C)cc2)cc1 | 36.2 | > 100 | 30.1 | 39.4 | 39.3 | – | 35.6 | – | > 100 | – | 39.3 | 32.9 | 38.2 | 33.8 | 40.2 | 33.8 | 34.8 | 44.6 | 23.9 |
| C[C@@]12C[C@@H](c3ccccc3O1)N1CCSC1=N2 | > 100 | > 100 | > 100 | > 100 | > 100 | > 100 | > 100 | > 100 | – | > 100 | > 100 | > 100 | > 100 | > 100 | > 100 | > 100 | > 100 | > 100 | > 100 |
